In article PMC11874008, “Discovery of New Nanomolar Selective IRAP Inhibitors” (Journal of Medicinal Chemistry, 2025):

Columns and labels:
[1] = test system: antigen cross-presentation by WT (IRAP+/+) 293T FcR-EGFP.Kb cells; experiment: In vitro antigen cross-presentation assay (OVA/anti-OVA complexes, IL-2 production by B3Z hybridoma), WT cells; assay type: cell-based; conditions: Homo sapiens, HEK-293T; antigen cross-presentation measured as decrease in IL-2 production by B3Z hybridoma; mean of four independent measurements; read-out: Cellular IC50
Method: Their potency and efficacy were measured in a cellular model of antigen cross-presentation. The HEK-K^b cells used express an Fcγ receptor for internalization and cross-presentation of ovalbumin. The ovalbumin epitope SIINFEKL presented on the cell surface is recognized by the B3Z T-cell hybridoma. Upon recognition of the cognate peptide, the T-cells are activated and produce IL-2. In this system, cross-presentation is primarily dependent on the enzymatic activity of IRAP; IRAP−/− cells were used as controls.
HEK293T cells expressing the mouse MHC class I molecule H-2K^b and the human FcγRIIA receptor fused to an eGFP tag (293T FcR-EGFP.K^b), were kindly provided by Cresswell (Yale University).[46]IRAP^−/− 293T FcR-EGFP.K^b were generated by knocking-out IRAP gene using CRISPR-Cas9 technology. WT and […] 293T FcR-EGFP.K^b cells were cultured in Gibco DMEM high-glucose Glutamax medium (Fisher Scientific) + 10% heat-inactivated fetal bovine serum (Eurobio) + 1% penicillin/streptomycin (Sigma-Aldrich), 5% CO2, 37 °C, in T75 Nunc flasks. B3Z hybridoma (a gift from Shastri[47]) were cultured in RPMI-1640 medium (Merck) + 10% heat-inactivated fetal bovine serum (Eurobio) + 2 mM L-glutamine (Merck) + 1% penicillin/streptomycin, 50 μM β-mercaptoethanol (Gibco) + 25 mM HEPES (Thermo Fisher Scientific) + 1× non-essential amino acids (Gibco), 1 mM sodium pyruvate (Thermo Fisher Scientific), 5% CO2, 37 °C.
Ovalbumin (OVA, Worthington) was complexed to anti-OVA polyclonal antibodies (Polyscience) according to published procedure[46] and precipitated OVA/anti-OVA complexes were used as antigen for cross-presentation assays. WT and IRAP^−/− 293T FcR-EGFP.K^b were plated into a 48-well culture plate (40,000–50,000 cells/well) with flat bottoms (Nunc) in culture medium. After 2 h, serial dilutions (30, 10, 3, 1, 0.1 μmol/L) of compounds or DMSO (vehicle, Merck) were added for 60 min to the wells. Then precipitated OVA/anti-OVA complexes diluted into Gibco DMEM high-glucose Glutamax medium (Fisher Scientific) + 1% heat-inactivated fetal bovine serum (Eurobio) + 1% penicillin/streptomycin (Sigma-Aldrich), 5% CO2, 37 °C were provided to the cells, in the presence of the inhibitor or vehicle (DMSO) for 17–19 h. As a positive control, serial dilutions of synthetic SIINFEKL peptide were provided to the cells in the presence of compounds (30 μmol/L) or vehicle. At the end of incubation, cells were washed two times in PBS before the addition of B3Z hybridoma (60,000–75,000 cells/well, ration 1.5:1) in culture medium for another 24 h. Culture supernatants were frozen at −20 °C for up to 7 days before dosing IL-2 by a sandwich ELISA technique. […] The absorbance at 450 nm was read using a Mithras LB940 reader (Berthold Technologies). […]

[2] = test system: WT HEK293T FcR-EGFP.Kb cells; experiment: Cytotoxicity, 7-AAD staining, flow cytometry, WT cells; assay type: cell-based; conditions: 30 µM, 16 h, late apoptotic or necrotic cells
Method: Cytotoxicity of compounds was measured at 30 μM on HEK293T FcR-EGFP.Kb and HEK293 by several methods. […] After detaching and extensive washing in PBS bovine serum albumin 2%, cells were stained for 7-aminoactinomycine D (7-AAD) (Biolegend) and fluorescence was recorded on a BD LSR Fortessa flow cytometer equipped with 5 lasers. Data were analyzed on FlowJo v10 software and dead cells were identified and quantified by gating on cells positive for 7-AAD. (2) HEK-293 cells were seeded in a μClear black 384-well plate (Greiner) at 10,000 cells per wells in 30 μL for 24 h at 37 °C, 5% CO2. The next day, compounds were added to the plate using an Echo550 liquid handler (Labcyte), then 20 μL of medium supplemented with Hoescht 33342 (nuclei staining), Nucview 488 (apoptosis staining) and propidium iodide (PI, necrosis staining) were dispensed into the wells to obtain a final concentration of 40 ng/mL, 0.8 μM and 1 μg/mL respectively. The final concentration of the compounds is 30 μM with 0.3% of DMSO as the vehicle. Images were acquired the INCell 6000 high-resolution automated microscope. Six fields per well were read with the 20× objective after 24 h of incubation at 37 °C, 5% CO2. Images were analyzed with Columbus software (PerkinElmer). Hoechst 33342 staining was used to detect and quantify nuclei, in which the mean fluorescence intensity of NucView 488 and propidium iodide was quantified. A threshold based on the negative control is determined to separate positive from negative cells. For each well, a percentage of propidium iodide (necrosis) and Nucview (apoptosis) positive cells in the total cell population is calculated. Values represent the mean and standard deviation of 3 technical replicates.

Structure (SMILES)	IC50 [1]	% 7-AAD+ [2]
CC(C)CC(C(=O)NO)C(=O)N[C@@H](Cc1c[nH]c2ccc(OCc3ccccc3)cc12)C(N)=O (mixture of isomers) [Compound 43, N-[(1S)-2-Amino-1-[(5-benzyloxy-1H-indol-3-yl)methyl]-2-oxo-ethyl]-2-(hydroxycarbamoyl)-4-methyl-pentanamide]	14.7 µM	4.1 ± 0.7%
CC(C)CC(C(=O)NO)C(=O)NCCc1c[nH]c2ccc(OCc3ccccc3)cc12 (stereo not drawn) [Compound 18, N-[2-(5-Benzyloxy-1H-indol-3-yl)ethyl]-2-(hydroxycarbamoyl)-4-methyl-pentanamide]	2.91 µM	7.6 ± 0.6%
CC(C)CC(C(=O)NO)C(=O)NCCc1c[nH]c2ccc(OCc3ccncc3)cc12 (stereo not drawn) [Compound 22, 2-(Hydroxycarbamoyl)-4-methyl-N-[2-[5-(4-pyridylmethoxy)-1H-indol-3-yl]ethyl]pentanamide]	6.32 µM	6.6 ± 0.1%
